The structures appear in SMILES notation. Values joined by “and” are separate entries in the source; they are usually repeats but may differ in a detail not shown here. Equal entries are not always repeated. Inconclusive results and toxic doses are left out.

The test concerns P388 leukemia ip, CD2F1 mice, survival T/C. Nature of the test: NCI In Vivo Anticancer Drug Screen. Data for tumor model P388 Leukemia (intraperitoneal) in CD2F1 (CDF1) mice. Conditions: endpoint: median survival time, higher = longer survival. The method in brief:
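Mice carrying the transplanted tumor received test compound or vehicle. Survival was recorded in each group, and the value is the treated-group measurement divided by that of the vehicle-treated control group.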

[1] abbreviates: dose: 100.0 mg/kg/injection, schedule: Q01DX001 (ip), vehicle: saline with Tween-80.
The mark [2] stands for this setting: dose: 200.0 mg/kg/injection, schedule: Q01DX001 (ip), vehicle: saline with Tween-80.
Where [3] appears, read: dose: 400.0 mg/kg/injection, schedule: Q01DX001 (ip), vehicle: saline with Tween-80.
[4] abbreviates: dose: 50.0 mg/kg/injection, schedule: Q01DX009 (ip), vehicle: saline with Tween-80.
Where [5] appears, read: dose: 50.0 mg/kg/injection, schedule: Q04DX003 (ip), vehicle: other.
[6] abbreviates: dose: 50.0 mg/kg/injection, schedule: Q01DX005 (ip), vehicle: Klucel (hydroxypropylcellulose) (HPC).
Where [7] appears, read: dose: 100.0 mg/kg/injection, schedule: Q01DX005 (ip), vehicle: Klucel (hydroxypropylcellulose) (HPC).
[8] abbreviates: dose: 200.0 mg/kg/injection, schedule: Q01DX005 (ip), vehicle: Klucel (hydroxypropylcellulose) (HPC).
Setting [9] is: dose: 100.0 mg/kg/injection, schedule: Q01DX009 (ip), vehicle: saline with Tween-80.
Where [10] appears, read: dose: 200.0 mg/kg/injection, schedule: Q01DX009 (ip), vehicle: saline with Tween-80.
Where [11] appears, read: dose: 60.0 mg/kg/injection, schedule: Q01DX005 (ip), vehicle: Klucel (hydroxypropylcellulose) (HPC).
The mark [12] stands for this setting: dose: 120.0 mg/kg/injection, schedule: Q01DX005 (ip), vehicle: Klucel (hydroxypropylcellulose) (HPC).
Setting [13] is: dose: 240.0 mg/kg/injection, schedule: Q01DX005 (ip), vehicle: Klucel (hydroxypropylcellulose) (HPC).

For the compound `COC(=O)C1(C)CCCC2(C)C3=C(CCC12)C(=O)c1occc1CC3` (configuration not stated), the T/C runs as follows: (dose: 0.37 mg/kg/injection, schedule: Q01DX009 (ip), vehicle: Klucel (hydroxypropylcellulose) (HPC)) 100 % of control; (dose: 0.75 mg/kg/injection, schedule: Q01DX009 (ip), vehicle: Klucel (hydroxypropylcellulose) (HPC)) 103 % of control; (dose: 1.5 mg/kg/injection, schedule: Q01DX009 (ip), vehicle: Klucel (hydroxypropylcellulose) (HPC)) 100 % of control; (dose: 3.0 mg/kg/injection, schedule: Q01DX009 (ip), vehicle: Klucel (hydroxypropylcellulose) (HPC)) 99 % of control; (dose: 6.0 mg/kg/injection, schedule: Q01DX009 (ip), vehicle: Klucel (hydroxypropylcellulose) (HPC)) 108 % of control.
Consider `O=S1(=O)c2ccccc2N(c2ccccc2)c2nccn21`, for which the T/C runs as follows: under setting [1], 101 % of control; under setting [2], 98 % of control; under setting [3], 92 % of control.
Consider `Cn1ccn(C)c1=S`, for which the T/C reads like this: (dose: 50.0 mg/kg/injection, schedule: Q01DX009 (ip), vehicle: saline) 107 % of control; (dose: 100.0 mg/kg/injection, schedule: Q01DX009 (ip), vehicle: saline) 97 % of control; (dose: 200.0 mg/kg/injection, schedule: Q01DX009 (ip), vehicle: saline) 101 % of control.
For the compound `CCOC(=O)c1ccc(N(CCC2CO2)S(=O)(=O)c2ccc(C)cc2)cc1` (configuration not stated), the T/C reads like this: (dose: 25.0 mg/kg/injection, schedule: Q01DX009 (ip), vehicle: Klucel (hydroxypropylcellulose) (HPC)) 94 % of control; (dose: 50.0 mg/kg/injection, schedule: Q01DX009 (ip), vehicle: Klucel (hydroxypropylcellulose) (HPC)) 93 % of control; (dose: 100.0 mg/kg/injection, schedule: Q01DX009 (ip), vehicle: Klucel (hydroxypropylcellulose) (HPC)) 98 % of control; (dose: 200.0 mg/kg/injection, schedule: Q01DX009 (ip), vehicle: Klucel (hydroxypropylcellulose) (HPC)) 94 % of control.
In the case of `Cc1c2ccccc2c(C)c2c1ccc1ccccc12`, the T/C was 167 % of control (dose: 3.13 mg/kg/injection, schedule: Q01DX009 (ip), vehicle: saline with Tween-80); 163 % of control (dose: 4.0 mg/kg/injection, schedule: Q01DX009 (ip), vehicle: saline with Tween-80); 163 % of control (dose: 6.2 mg/kg/injection, schedule: Q01DX009 (ip), vehicle: saline with Tween-80); 180 % of control and 184 % of control (dose: 6.25 mg/kg/injection, schedule: Q01DX009 (ip), vehicle: saline with Tween-80); 109 % of control (dose: 9.3 mg/kg/injection, schedule: Q01DX009 (ip), vehicle: saline with Tween-80); 175 % of control (dose: 12.5 mg/kg/injection, schedule: Q01DX009 (ip), vehicle: saline with Tween-80). Besides, the T/C was 104 % of control (dose: 12.5 mg/kg/injection, schedule: Q04DX003 (ip), vehicle: other); 98 % of control and 100 % of control and 116 % of control (dose: 25.0 mg/kg/injection, schedule: Q01DX009 (ip), vehicle: saline with Tween-80); 116 % of control (dose: 25.0 mg/kg/injection, schedule: Q04DX003 (ip), vehicle: other); 100 % of control under setting [4]; 116 % of control under setting [5]; 111 % of control (dose: 100.0 mg/kg/injection, schedule: Q04DX003 (ip), vehicle: other).
With `CCc1c(C#N)c(N)c2c(N)c(C(=O)c3ccccc3)sc2c1C`, the T/C was 89 % of control under setting [6], 101 % of control under setting [7] and 95 % of control under setting [8].
As for `CN(C)CCN(C)C`, the T/C is 100 % of control under setting [9] and 95 % of control under setting [10].
In the case of `NC(=O)c1c(-c2ccccc2)nc2sccn12`, the T/C is 98 % of control (dose: 100.0 mg/kg/injection, schedule: Q01DX001 (ip), vehicle: Klucel (hydroxypropylcellulose) (HPC)); 90 % of control (dose: 200.0 mg/kg/injection, schedule: Q01DX001 (ip), vehicle: Klucel (hydroxypropylcellulose) (HPC)); 92 % of control (dose: 400.0 mg/kg/injection, schedule: Q01DX001 (ip), vehicle: Klucel (hydroxypropylcellulose) (HPC)).
Regarding `Cc1ccc(Nc2cccc3c2C(=O)c2cccc(Nc4ccc(C)cc4S(=O)(=O)O)c2C3=O)c(S(=O)(=O)O)c1`, the T/C is, setting by setting: under setting [4], 108 % of control; under setting [9], 100 % of control; under setting [10], 101 % of control.
Regarding `CC(C)OC(=O)NN(C(=O)OC(C)C)N(C)C`, the T/C by setting is: under setting [11], 100 % of control; under setting [12], 100 % of control; under setting [13], 103 % of control.
As for `COc1cccc(-n2c(SC)nccc2=O)c1`, the T/C by setting is: (dose: 100.0 mg/kg/injection, schedule: Q04DX003 (ip), vehicle: Klucel (hydroxypropylcellulose) (HPC)) 100 % of control; (dose: 200.0 mg/kg/injection, schedule: Q04DX003 (ip), vehicle: Klucel (hydroxypropylcellulose) (HPC)) 101 % of control; (dose: 400.0 mg/kg/injection, schedule: Q04DX003 (ip), vehicle: Klucel (hydroxypropylcellulose) (HPC)) 100 % of control.
For `CC(=O)CC(c1ccccc1)C(C#N)c1ccccc1` (configuration not stated), the T/C is 118 % of control (dose: 12.5 mg/kg/injection, schedule: Q04DX003 (ip), vehicle: Klucel (hydroxypropylcellulose) (HPC)); 106 % of control (dose: 25.0 mg/kg/injection, schedule: Q04DX003 (ip), vehicle: Klucel (hydroxypropylcellulose) (HPC)); 106 % of control (dose: 50.0 mg/kg/injection, schedule: Q04DX003 (ip), vehicle: Klucel (hydroxypropylcellulose) (HPC)).
Turning to `Cc1ccc(C2OC3=C(Nc4ccc([N+](=O)[O-])cc4N3)C2=O)cc1` (configuration not stated), the T/C runs as follows: under setting [11], 90 % of control; under setting [12], 93 % of control; under setting [13], 96 % of control.
With `CSc1ncn(C)c1C(N)=O`, the T/C under setting [6] was 97 % of control, the T/C under setting [7] was 99 % of control and the T/C under setting [8] was 99 % of control.
Turning to `NC(=O)Oc1cccc(OC(N)=O)c1`, the T/C runs as follows: (dose: 25.0 mg/kg/injection, schedule: Q01DX009 (ip), vehicle: other) 103 % of control; (dose: 50.0 mg/kg/injection, schedule: Q01DX009 (ip), vehicle: other) 111 % of control; under setting [5], 95 % of control; (dose: 100.0 mg/kg/injection, schedule: Q01DX009 (ip), vehicle: other) 113 % of control; (dose: 200.0 mg/kg/injection, schedule: Q01DX009 (ip), vehicle: other) 113 % of control; (dose: 200.0 mg/kg/injection, schedule: Q04DX003 (ip), vehicle: other) 98 % of control.
In the case of `CN(C)CC1C(=O)C2CCC1C2` (configuration not stated), the T/C is, setting by setting: (dose: 50.0 mg/kg/injection, schedule: Q01DX005 (ip), vehicle: saline with Tween-80) 98 % of control; (dose: 100.0 mg/kg/injection, schedule: Q01DX005 (ip), vehicle: saline with Tween-80) 98 % of control; (dose: 200.0 mg/kg/injection, schedule: Q01DX005 (ip), vehicle: saline with Tween-80) 108 % of control.
As to `CCC12OCCN1CCO2`, the T/C (dose: 200.0 mg/kg/injection, schedule: Q01DX009 (ip), vehicle: water) is 100 % of control; the T/C (dose: 400.0 mg/kg/injection, schedule: Q01DX009 (ip), vehicle: water) is 100 % of control; the T/C (dose: 800.0 mg/kg/injection, schedule: Q01DX009 (ip), vehicle: water) is 102 % of control; the T/C (dose: 1600.0 mg/kg/injection, schedule: Q01DX009 (ip), vehicle: water) is 106 % of control.
Turning to `CC12OC(=O)CC1C(c1ccccc1)(c1ccccc1)O2` (configuration not stated), the T/C runs as follows: (dose: 60.0 mg/kg/injection, schedule: Q01DX005 (ip), vehicle: saline with Tween-80) 100 % of control; (dose: 120.0 mg/kg/injection, schedule: Q01DX005 (ip), vehicle: saline with Tween-80) 94 % of control; (dose: 240.0 mg/kg/injection, schedule: Q01DX005 (ip), vehicle: saline with Tween-80) 88 % of control.
Regarding `C=CCNC(=S)N/N=C(/C=C/c1ccc(OC)cc1)CCN(C)C`, the T/C was 87 % of control under setting [1], 89 % of control under setting [2] and 90 % of control under setting [3].

The record behind these values is PubChem BioAssay AID330 (DTP/NCI, 2004).
